Source: patent US10329295B2, “Pyrrolotriazine inhibitors of IRAK4 activity” (MERCK SHARP & DOHME CORP., priority 2015, dated 2019)
Counter-ions that a name gives are not always drawn.

Target: GST tagged IRAK4 (Homo sapiens (Human), UniProt Q9NWZ3)
Test: IRAK4 Kinase Assay (IMAP fluorescence polarization)
Format: biochemical
Conditions: 0.5 nM GST tagged IRAK4, 100 μM ATP, 30 minutes at 25° C.
Experimental: The kinase activity of IRAK4 is determined by its ability to catalyze the phosphorylation of a fluorescent polypeptide substrate. The extent of phosphorylation is measured using the IMAP technology (Molecular Devices) where the phosphorylated fluorescent substrate binds to the large M(III)-based nanoparticles which reduces the rotational speed of the substrate and thus increases its fluorescent polarization (FP).
20 μL reaction mixture contains 10 mM TriHCl, pH 7.2, 0.5 nM GST tagged IRAK4 (SignalChem), 100 nM fluorescent peptide substrate (RP7030, Molecular Devices), 100 μM ATP, 1 mM DDT, 1 mM MgCl2, and 0.01% Tween 20. The reaction is initiated by the addition of ATP. After incubation for 30 minutes at 25° C., 60 μL of Progressive IMAP Reagent (Molecular Devices) is added to stop the reaction. Change in RP7030's FP is determined by a FP reader (Analyst HT, LJL BioSystems).

Sequence of GST tagged IRAK4 (Q9NWZ3 whole entry): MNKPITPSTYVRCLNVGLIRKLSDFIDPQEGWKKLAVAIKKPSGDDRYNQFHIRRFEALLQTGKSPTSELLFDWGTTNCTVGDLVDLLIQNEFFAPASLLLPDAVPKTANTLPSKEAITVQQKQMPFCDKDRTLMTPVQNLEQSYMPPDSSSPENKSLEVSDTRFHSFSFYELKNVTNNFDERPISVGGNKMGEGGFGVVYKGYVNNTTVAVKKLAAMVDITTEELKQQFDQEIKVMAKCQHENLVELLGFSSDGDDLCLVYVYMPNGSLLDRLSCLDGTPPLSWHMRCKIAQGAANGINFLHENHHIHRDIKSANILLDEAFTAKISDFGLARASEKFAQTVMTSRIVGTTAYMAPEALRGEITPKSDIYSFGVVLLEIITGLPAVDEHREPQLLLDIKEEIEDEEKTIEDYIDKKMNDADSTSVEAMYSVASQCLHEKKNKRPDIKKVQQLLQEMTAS

Work on Cn1cc(NC(=O)c2ccc3cnc(N4CCNCC5(CC5)C4)nn23)c(C(F)(F)F)n1 [Example 9, 2-(5,8-diazaspiro[2.6]non-5-yl)-N-[1-methyl-3-(trifluoromethyl)-1H-pyrazol-4-yl]pyrrolo[2,1-f][1,2,4]triazine-7-carboxamide trifluoroacetate] yielded an IC50 of 7 nM.
Cn1cc(NC(=O)c2ccc3cnc(N[C@@H]4CNC[C@H](F)C4)nn23)c(C(F)(F)F)n1 [Example 154, 2-{[(3S,5R)-5-fluoropiperidin-3-yl]amino}-N-[1-methyl-3-(trifluoromethyl)-1H-pyrazol-4-yl]pyrrolo[2,1-f][1,2,4]triazine-7-carboxamide] gave an IC50 of 53 nM.
With Cn1cc(NC(=O)c2ccc3cnc(N4C[C@H]5CN[C@H](C5)C4)nn23)c(C#N)n1 (single isomer, unassigned) [Example 114, N-(3-cyano-1-methyl-1H-pyrazol-4-yl)-2-[(1S,5S)- or (1R,5R)-3,6-diazabicyclo[3.2.1]oct-3-yl]pyrrolo[2,1-f][1,2,4]triazine-7-carboxamide] the IC50 was 390 nM.
Compound N#Cc1ccccc1NC(=O)c1ccc2cnc(N[C@@H]3CCCC[C@@H]3O)nn12 [Example 71, N-(2-cyanophenyl)-2-{[(1R,2S)-2-hydroxycyclohexyl]amino}-pyrrolo[2,1-f][1,2,4]triazine-7-carboxamide] has an IC50 of 661 nM.
In the case of Cn1cc(NC(=O)c2ccc3cnc(N[C@@H]4CCCC[C@@H]4N)nn23)c(C(F)F)n1 [Example 1, 2-{[(1R,2S)-2-Aminocyclohexyl]amino}-N-[3-(difluoromethyl)-1-methyl-1H-pyrazol-4-yl]pyrrolo[2,1-f][1,2,4]triazine-7-carboxamide], the IC50 is reported as 0.5 nM.
Work on Cn1cc(NC(=O)c2ccc3cnc(N[C@H]4CCCCNC4)nn23)c(C(F)F)n1 (single isomer, unassigned) [Example 91, 2-[(3S)- or (3R)-azepan-3-ylamino]-N-[3-(difluoromethyl)-1-methyl-1H-pyrazol-4-yl]pyrrolo[2,1-f][1,2,4]triazine-7-carboxamide trifluoroacetate] yielded an IC50 of 1 nM.
With N[C@H]1CCCC[C@H]1Nc1ncc2ccc(C(=O)Nc3ccsc3Br)n2n1 [Example 38, 2-{[(1R,2S)-2-aminocyclohexyl]amino}-N-(2-bromothiophen-3-yl)pyrrolo[2,1-f][1,2,4]triazine-7-carboxamide trifluoroacetate] the IC50 was 7 nM.
Cn1cc(NC(=O)c2ccc3cnc(N4CC5CCC(C4)N5)nn23)c(C#N)n1 [Example 110, N-(3-cyano-1-methyl-1H-pyrazol-4-yl)-2-(3,8-diazabicyclo[3.2.1]oct-3-yl)pyrrolo[2,1-f][1,2,4]triazine-7-carboxamide trifluoroacetate] gave an IC50 of 117 nM.
For Cn1cc(NC(=O)c2ccc3cnc(NC4CCCCNC4)nn23)c(C(F)(F)F)n1 (stereo not drawn) [Example 10, 2-(azepan-3-ylamino)-N-[1-methyl-3-(trifluoromethyl)-1H-pyrazol-4-yl]pyrrolo[2,1-f][1,2,4]triazine-7-carboxamide trifluoroacetate], the IC50 was 4 nM.
Cn1cc(NC(=O)c2ccc3cnc(N4CCCNCC4)nn23)c(C(F)(F)F)n1 [Example 6, 2-(1,4-diazepan-1-yl)-N-[1-methyl-3-(trifluoromethyl)-1H-pyrazol-4-yl]pyrrolo[2,1-f][1,2,4]triazine-7-carboxamide trifluoroacetate] gave an IC50 of 94 nM.
Cn1cc(NC(=O)c2ccc3cnc(N[C@@H]4CCCC[C@@H]4N)nn23)c(C(F)(F)F)n1 [Example 2, 2-{[(1R,2S)-2-aminocyclohexyl]amino}-N-[1-methyl-3-(trifluoromethyl)-1H-pyrazol-4-yl]pyrrolo[2,1-f][1,2,4]triazine-7-carboxamide trifluoroacetate] showed an IC50 of 2 nM.
For Cn1cc(NC(=O)c2ccc3cnc(N[C@H]4CCCCNC4)nn23)c(C(F)(F)F)n1 (single isomer, unassigned) [Example 69, 2-[(3S)- or (3R)-azepan-3-ylamino]-N-[1-methyl-3-(trifluoromethyl)-1H-pyrazol-4-yl]pyrrolo[2,1-f][1,2,4]triazine-7-carboxamide trifluoroacetate], the IC50 was 5 nM.
In the case of Cn1cc(NC(=O)c2ccc3cnc(N[C@H]4CCC(F)(F)C[C@H]4N)nn23)c(C(F)(F)F)n1 (single isomer, unassigned) [Example 128, 2-{[(1S,2R)- or (1R,2S)-2-amino-4,4-difluorocyclohexyl]amino}-N-[1-methyl-3-(trifluoromethyl)-1H-pyrazol-4-yl]pyrrolo[2,1-f][1,2,4]triazine-7-carboxamide trifluoroacetate], the IC50 is reported as 46 nM.
In the case of O=C(Nc1ccccc1Br)c1ccc2cnc(N3C[C@H]4CC[C@@H]3CN4)nn12 (single isomer, unassigned) [Example 77, N-(2-bromophenyl)-2-[(1S,4S)- or (1R,4R)-2,5-diazabicyclo[2.2.2]oct-2-yl]pyrrolo[2,1-f][1,2,4]triazine-7-carboxamide trifluoroacetate], the IC50 is reported as 1960 nM.
In the case of N[C@@H]1[C@H](Nc2ncc3ccc(C(=O)Nc4ccsc4Br)n3n2)CCCC1(F)F [Example 94, 2-{[(1R,2R)-2-amino-3,3-difluorocyclohexyl]amino}-N-(2-bromothiophen-3-yl)pyrrolo[2,1-f][1,2,4]triazine-7-carboxamide trifluoroacetate], the IC50 is reported as 4150 nM.
N#Cc1cscc1NC(=O)c1ccc2cnc(N3CCC[C@H](N)C3)nn12 [Example 143, 2-[(3S)-3-aminopiperidin-1-yl]-N-(4-cyanothiophen-3-yl)pyrrolo[2,1-f][1,2,4]triazine-7-carboxamide trifluoroacetate] was tested, and the IC50 was 9 nM.
Work on O=C(Nc1ccsc1Br)c1ccc2cnc(N3C[C@@H]4CC[C@H]3CN4)nn12 (single isomer, unassigned) [Example 48, N-(2-bromothiophen-3-yl)-2-[(1S,4S)- or (1R,4R)-2,5-diazabicyclo[2.2.2]oct-2-yl]pyrrolo[2,1-f][1,2,4]triazine-7-carboxamide trifluoroacetate] yielded an IC50 of 1650 nM.
Compound N[C@H]1CCCC[C@H]1Nc1ncc2ccc(C(=O)Nc3cscc3Cl)n2n1 [Example 109, 2-{[(1R,2S)-2-aminocyclohexyl]amino}-N-(4-chlorothiophen-3-yl)pyrrolo[2,1-f][1,2,4]triazine-7-carboxamide trifluoroacetate] has an IC50 of 2 nM.
Work on N[C@H]1CCCC[C@H]1Nc1ncc2ccc(C(=O)Nc3ccccc3C(F)F)n2n1 [Example 56, 2-{[(1R,2S)-2-aminocyclohexyl]amino}-N-[2-(difluoromethyl)phenyl]-pyrrolo[2,1-f][1,2,4]triazine-7-carboxamide trifluoroacetate] yielded an IC50 of 88 nM.
Work on Cn1cc(NC(=O)c2ccc3cnc(N4C5CCC4CNC5)nn23)c(C(F)F)n1 [Example 121, 2-(3,8-diazabicyclo[3.2.1]oct-8-yl)-N-[3-(difluoromethyl)-1-methyl-1H-pyrazol-4-yl]pyrrolo[2,1-f][1,2,4]triazine-7-carboxamide trifluoroacetate] yielded an IC50 of 0.5 nM.
Compound N[C@@H]1[C@H](Nc2ncc3ccc(C(=O)Nc4cscc4Cl)n3n2)CCCC1(F)F [Example 126, 2-{[(1R,2R)-2-amino-3,3-difluorocyclohexyl]amino}-N-(4-chlorothiophen-3-yl)pyrrolo[2,1-f][1,2,4]triazine-7-carboxamide trifluoroacetate] has an IC50 of 1270 nM.
